According to patent publication US10940139B2, “Compounds that interact with the Ras superfamily for the treatment of cancers, inflammatory diseases, rasopathies, and fibrotic disease” (Shy Therapeutics LLC, priority 2017, dated 2021):

Key:
Rho-A = Rho-A (Homo sapiens (Human), UniProt P61586); assay: Rho inhibition assay (labeled GTP); assay type: binding; conditions: read-out: Rho-A % Inh.
[1] = target: KRas G12D/Q61H double mutant (Homo sapiens (Human), UniProt P01116, G12D/Q61H); assay: Ras GTP binding domain inhibition assay (labeled GTP); conditions: at 20 μM; read-out: KRas G12D Q61H % Inh.
Chain of KRas G12D/Q61H double mutant (P01116-2 other isoform, or with tags, fused parts or gaps G12D/Q61H): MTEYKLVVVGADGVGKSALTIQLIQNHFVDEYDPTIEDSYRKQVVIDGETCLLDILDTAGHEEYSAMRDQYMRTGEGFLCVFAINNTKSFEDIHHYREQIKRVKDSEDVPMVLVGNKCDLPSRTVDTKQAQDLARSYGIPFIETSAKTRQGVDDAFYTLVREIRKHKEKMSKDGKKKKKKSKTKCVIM
Procedure, shortened: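 Ni-plate capture of His-KRas (3-10 μg/ml, o/n, 4° C); Tris pH 7.5/MgCl2/DTT buffer, 1% DMSO. Cpd 20 μM or titration, 3 h RT. Cy3/Cy5-GTP 45 min RT, wash, fluorescence of bound GTP.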

KRas G12D mutant protein = KRas G12D mutant protein (Homo sapiens (Human), UniProt P01116, G12D); assay: as above; conditions: at 20 μM; read-out: KRas G12D % Inh.
Chain of KRas G12D mutant protein (P01116-2 other isoform, or with tags, fused parts or gaps G12D): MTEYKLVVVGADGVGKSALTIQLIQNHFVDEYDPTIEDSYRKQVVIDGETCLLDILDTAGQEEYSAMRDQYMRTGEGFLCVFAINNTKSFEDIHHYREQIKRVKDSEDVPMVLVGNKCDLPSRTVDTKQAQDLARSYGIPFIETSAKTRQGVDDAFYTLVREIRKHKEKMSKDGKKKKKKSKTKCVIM
Experimental: The following method was developed as specific assay for KRas G12D mutant protein.
Buffer-I: • 50 mM Tris, pH 7.5 • 150 mM NaCl (optional) • 1 mM MgCl2 • 1 mM DTT. • KRas G12D mutant protein was expressed as a His-tagged protein. Purified His-KRas G12D protein was diluted in buffer-I to a final concentration of 3-10 μg/ml. • 200 μl of the diluted His-KRas G12D protein was added to a nickel coated 96 well plate and incubated overnight at 4° C. • The next day, wells were washed 3× in 200 μl of Buffer-I. • Then 200 μl of Buffer-I were added to each well in the presence of 1% DMSO. • Tested compounds were added to the protein-coated wells at a concentration of 20 μM, and incubated for 3 hours at room temperature. While performing IC50 measurements a serial dilution of all tested concentrations was prepared.
Then 22 μl of Cy3-GTP or Cy5-GTP was added to each well. The labeled GTP was incubated for 45 min. at room temperature. • Following GTP incubation, wells were washed 3× in Buffer-I, and 200 μl of Buffer-I were added to each well. • Following washes, the amount of bound labeled-GTP was measured with an Eppendorf AF2200 plate reader.

Rac-1 = Rac-1 (Homo sapiens (Human), UniProt P63000); assay: Rac inhibition assay (labeled GTP); assay type: binding; conditions: read-out: Rac-1 % Inh.

Chain of Rho-A (P61586 whole entry, the tested form may be a part): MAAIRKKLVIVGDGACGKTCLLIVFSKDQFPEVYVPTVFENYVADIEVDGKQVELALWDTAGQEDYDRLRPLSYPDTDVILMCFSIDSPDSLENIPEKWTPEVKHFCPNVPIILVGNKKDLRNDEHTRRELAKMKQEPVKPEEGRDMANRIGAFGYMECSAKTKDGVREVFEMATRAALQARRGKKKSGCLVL

inhibition at 20 µM (Rho-A) [%]	inhibition at 20 µM (KRas G12D mutant protein) [%]	inhibition at 20 µM (Rac-1) [%]	SMILES	inhibition at 20 µM [1] [%]
25 to 50	25 to 50	25 to 50	Cn1ccnc1-c1nc(NCCOC(F)(F)F)c2c(-c3ccccc3)c(-c3ccccc3)sc2n1 [drawing 3886]	–
51 to 75	25 to 50	25 to 50	COCCNc1nc(-c2nccn2C)nc2sc(-c3ccccc3)c(-c3ccccn3)c12 [drawing 3940]	–
25 to 50	51 to 75	25 to 50	COCCN(C)c1nc(-c2nccn2C)nc2sc(-c3ccccc3)c(-c3ccccc3)c12 [drawing 3884]	–
51 to 75	51 to 75	51 to 75	COCCNc1nc(-c2nccn2C)nc2sc(-c3ccncc3)c(-c3ccccc3)c12 [drawing 3900]	–
25 to 50	25 to 50	25 to 50	COCCNc1nc(-c2nccn2C)nc2sc(-c3ccccc3)c(-c3ccccc3Cl)c12 [drawing 3898]	–
25 to 50	1 to 25	1 to 25	COCCNc1nc(-c2ccccn2)nc2sc(-c3ccccc3)c(-c3ccccn3)c12 [drawing 3938]	–
51 to 75	51 to 75	51 to 75	CCOCCNc1nc(-c2nccn2C)nc2sc(-c3ccccc3)c(-c3ccccc3)c12 [drawing 3893]	–
51 to 75	25 to 50	1 to 25	COCCNc1nc(-c2nccn2C)nc2sc(-c3cccc(OC)c3)c(-c3ccccc3)c12 [drawing 3904]	–
51 to 75	25 to 50	51 to 75	COCCNc1nc(-c2nccn2C)nc2sc(-c3ccccc3)c(-c3ccc(OC)cc3)c12 [drawing 3907]	–
51 to 75	51 to 75	51 to 75	COCCNc1nc(-c2nccn2C)nc2sc(C)c(-c3ccccc3)c12 [drawing 3902]	–
51 to 75	51 to 75	51 to 75	Cn1ccnc1-c1nc(O)c2sc(-c3ccccc3)c(-c3ccccc3Cl)c2n1 [drawing 3913]	–
1 to 25	1 to 25	1 to 25	COc1ccc(-c2c(-c3ccccc3)sc3c(O)nc(-c4nccn4C)nc23)cn1 [drawing 3911]	–
25 to 50	51 to 75	25 to 50	CC(C)OCCNc1nc(-c2nccn2C)nc2sc(-c3ccccc3)c(-c3ccccc3)c12 [drawing 3885]	–
25 to 50	1 to 25	0	COCCNc1nc(-c2nccn2C)nc2sc(-c3ccccc3Cl)c(-c3ccccc3)c12 [drawing 3899]	–
1 to 25	1 to 25	1 to 25	CC(CO)Nc1nc(-c2nccn2C)nc2sc(-c3ccccc3)c(-c3ccccc3)c12 (centres unmarked) [drawing 3896]	–
1 to 25	25 to 50	25 to 50	COCCNc1nc(-c2nccn2C)nc2sc(-c3ccc(OC)cc3)c(-c3ccccc3)c12 [drawing 3915]	–
51 to 75	51 to 75	51 to 75	Cn1ccnc1-c1nc(NCCCO)c2c(-c3ccccc3)c(-c3ccccc3)sc2n1 [drawing 3897]	–
0	51 to 75	25 to 50	COC1CCN(c2nc(-c3nccn3C)nc3sc(-c4ccccc4)c(-c4ccccc4)c23)C1 (centres unmarked) [drawing 3889]	–
1 to 25	0	1 to 25	COCCNc1nc(-c2ccncn2)nc2sc(-c3ccccc3)c(-c3ccccc3)c12 [drawing 3892]	–

More lines, now with the values behind:

SMILES	inhibition at 20 µM (Rho-A) [%]	inhibition at 20 µM (KRas G12D mutant protein) [%]	inhibition at 20 µM (Rac-1) [%]	inhibition at 20 µM [1] [%]
Cc1cnccc1-c1csc2c(O)nc(-c3ccccn3)nc12 [drawing 3760]	76 to 100	51 to 75	76 to 100	51 to 75
COc1cccc(C2CN(C(=O)c3csc4c(O)nc(-c5ccccn5)nc34)CCN2)c1 (centres unmarked) [drawing 3662]	76 to 100	51 to 75	76 to 100	25 to 50
Oc1nc(-c2ccccn2)nc2c(-c3ccc4c(c3)OCO4)csc12 [drawing 3751]	51 to 75	51 to 75	76 to 100	51 to 75
Cc1sc2c(O)nc(-c3ccccn3)nc2c1-c1ccccc1 [drawing 3777]	51 to 75	51 to 75	51 to 75	51 to 75
Oc1nc(-c2ccccn2)nc2c(C3CCC3)csc12 [drawing 3797]	76 to 100	51 to 75	76 to 100	51 to 75
Cc1sc2c(O)nc(-c3nccn3C)nc2c1-c1cccc(C(F)(F)F)c1 [drawing 3917]	0	1 to 25	25 to 50	–
Cn1ccnc1-c1nc(O)c2scc(-c3cccc(C(F)(F)F)c3)c2n1 [drawing 3916]	25 to 50	25 to 50	51 to 75	–
Cc1sc2c(O)nc(-c3nccn3C)nc2c1-c1ccc(OCC(C)C)nc1 [drawing 3918]	1 to 25	1 to 25	25 to 50	–
Cn1ccnc1-c1nc(O)c2scc(-c3cccc(OC(F)(F)F)c3)c2n1 [drawing 3921]	25 to 50	51 to 75	51 to 75	–
CC(C)COc1ccc(-c2csc3c(O)nc(-c4nccn4C)nc23)cn1 [drawing 3930]	51 to 75	76 to 100	51 to 75	–
Cn1ccnc1-c1nc(O)c2scc(-c3ccc(F)cc3F)c2n1 [drawing 3934]	25 to 50	25 to 50	51 to 75	–
Cc1sc2c(O)nc(-c3nccn3C)nc2c1-c1ccc(OC(C)C)c(F)c1 [drawing 3928]	25 to 50	51 to 75	51 to 75	–
COC(C)(C)c1ccc(-c2csc3c(O)nc(-c4nccn4C)nc23)cc1 [drawing 3936]	51 to 75	25 to 50	25 to 50	–
Cn1cnc(-c2nc(O)c3scc(-c4cccc(OC(F)(F)F)c4)c3n2)c1 [drawing 3924]	25 to 50	25 to 50	25 to 50	–
Oc1nc(-c2ncccn2)nc2c(-c3cccc(C(F)(F)F)c3)csc12 [drawing 3926]	51 to 75	25 to 50	51 to 75	–
CC(C)Oc1ccc(-c2c(-c3ccccc3)sc3c(O)nc(-c4nccn4C)nc23)cc1F [drawing 3929]	25 to 50	25 to 50	51 to 75	–
Cn1ccnc1-c1nc(O)c2scc(-c3cccc(Cl)c3)c2n1 [drawing 3935]	51 to 75	25 to 50	51 to 75	–
Cc1sc2c(O)nc(-c3nccn3C)nc2c1-c1ccc(F)cc1F [drawing 3939]	1 to 25	1 to 25	1 to 25	–
Cn1ccnc1-c1nc(O)c2scc(-c3ccccc3Cl)c2n1 [drawing 3933]	51 to 75	25 to 50	51 to 75	–
CC(C)COc1ccc(-c2csc3c(O)nc(-c4cn(C)cn4)nc23)cn1 [drawing 3923]	25 to 50	1 to 25	25 to 50	–
Cn1ccnc1-c1nc(O)c2scc(-c3ccc(C(C)(C)C)cc3)c2n1 [drawing 3937]	25 to 50	1 to 25	25 to 50	–
COc1ccc(-c2csc3c(O)nc(-c4nccn4C)nc23)cn1 [drawing 3931]	51 to 75	51 to 75	51 to 75	–
Cn1cnc(-c2nc(O)c3scc(-c4cccc(C(F)(F)F)c4)c3n2)c1 [drawing 3922]	25 to 50	25 to 50	25 to 50	–
CC(C)COc1ccc(-c2c(-c3ccccc3)sc3c(O)nc(-c4nccn4C)nc23)cn1 [drawing 3905]	51 to 75	51 to 75	51 to 75	–
COc1ccc(-c2c(C)sc3c(O)nc(-c4nccn4C)nc23)cn1 [drawing 3919]	0	1 to 25	1 to 25	–
Cn1ccnc1-c1nc(O)c2sc(-c3ccccc3)c(-c3cccc(C(F)(F)F)c3)c2n1 [drawing 3910]	0	0	1 to 25	–
